Assay results from publication PMC8126241, “Active Components from Cassia abbreviata Prevent HIV-1 Entry by Distinct Mechanisms of Action” (International Journal of Molecular Sciences, 2021).
Read-outs that look alike come from different tables or passages of the source.

Legend:
HIV-1 IIIB [1] = test: microbe, parasite or virus in culture; conditions: Human immunodeficiency virus 1, IIIB, PBMC, 168 h, read-out: IC50 IIIB
HIV-1 ADA-M [2] = test: microbe, parasite or virus in culture; conditions: Human immunodeficiency virus 1, PBMC, 168 h, read-out: IC50 ADA-M
[3] = test system: non-B HIV-1 primary clinical isolate #1; test: microbe, parasite or virus in culture; conditions: Human immunodeficiency virus 1, PBMC, 168 h, read-out: IC50 Clinical isolate #1
[4] = test system: non-B HIV-1 primary clinical isolate #2; test: microbe, parasite or virus in culture; conditions: Human immunodeficiency virus 1, PBMC, 168 h, read-out: IC50 Clinical isolate #2
HIV-1 = test: microbe, parasite or virus in culture; assay type: cell-based; conditions: for Anti-HIV activity: piceatannol analogues, pseudotype and MTT assay; for IC50: Human immunodeficiency virus 1, read-out: IC50 anti-HIV-1 activity
Text: (§1) Since molecular details of piceatannol interaction with its target(s) are currently not available, we performed a structure-activity relationship (SAR) study with the aim to understand the chemical and pharmacophoric features of piceatannol that are relevant for its anti-HIV activity. Seventeen chemical analogues of piceatannol (molecules 1–17, Figure 6) were designed and retrieved from commercial vendors and from an in-house library of natural products and their derivatives and tested in vitro against HIV-1 entry and HIV-1 infection using the pseudotype and the MTT assay, respectively. […] Besides, the two flavones hispidulin 14 and norartocarpetin 15, and the two styrene derivatives 16 and methyl ferulate 17 were tested.

[5] = Cytotoxicity of piceatannol analogues
Text: as §1

HIV-1 fusion = test: Fusion assay, HeLa-ENV-Lai with HeLa-P4-CXCR4-LTRLacZ cells; assay type: cell-based; conditions: Figure 8A
Method: Fusion inhibition was evaluated as previously described. Briefly, HeLa-ENV-Lai cells were pre-incubated with or without drugs for 2 h and added to HeLa-P4-CXCR4-LTRLacZ cells which were placed in a 96-well plate 1 day before. After 24 h, cells were washed with PBS and then incubated with 50 μL containing 0.5% NP-40 (Sigma, Belgium) for 15 min at room temperature. Fifty microliters chlorophenol red-β-D-galactopyranoside (CPRG) reagent (Roche, Sigma-Aldrich, Liège, Belgium) was then added into the plate. After 30 min incubation at room temperature in dark, β−galactosidase was assessed by measuring OD562 of the cells via POLARstar Omega plate reader (BMG Labtech, Ortenberg, Germany).

[6] = test system: HIV-1 gp120 / CD4 binding; test: CD4-gp120 interaction assay (ELISA); conditions: in-house ELISA
Method: Human soluble CD4 (sCD4) was immobilized in a 96-well plate by adding 100 ng sCD4 (R&D Systems, Belgium) in 100 μL PBS per well and incubated at 4 °C. After 24 h, the CD4 coated plate was washed with 1% BSA-PBS and blocked by adding 100μL 5% BSA-PBS per well for 1 h at 4 °C. The coated plate was then washed and incubated with or without drugs for 1 h at 4 °C. After washing, 100 ng HIV-1 gp120 protein (Fitzgerald, Acton, MA, USA) was added into the plate and kept for 1 h at 4 °C. The plate was washed, and anti-HIV-1 gp120 (Aalto Bio Reagents, Dublin, Ireland) (100 ng/100 μL PBS) was added. After 1 h, the plate was washed and anti-sheep HRP (Sigma, Belgium) (100 ng/100 μL PBS) was added. After 1 h incubation at 4 °C, 100 μL o-phenylenediamine dihydrochloride (OPD) (Thermo Fisher, Asse, Belgium) was added and incubated for 20 min in dark. One hundred microliters 0.5M H2SO4 was finally added to stop the reaction. OD492 and OD630 were measured by POLARstart Omega Plate Reader. OD492 − OD630 was calculated.

[7] = test system: pseudotype virus pNL4.3ΔEnvLuc-HXB2; test: microbe, parasite or virus in culture; conditions: Human immunodeficiency virus 1, HXB2, read-out: IC50 HIV-1 entry
[8] = test system: pseudotype virus pNL4.3ΔEnvLuc-HXB2; conditions: multi-dosing time assay, 2 h after spinoculation (post-infection)
CCR5 = molecular target: T1, CCR5 (Homo sapiens, UniProt P51681); test: Binding competition with anti-CCR5 antibody 2D7; conditions: anti-CCR5 antibody 2D7, U373-CD4-CCR5 cells
T1 construct: host or cells: U373-CD4-CCR5 cells
T1 sequence (P51681 whole entry): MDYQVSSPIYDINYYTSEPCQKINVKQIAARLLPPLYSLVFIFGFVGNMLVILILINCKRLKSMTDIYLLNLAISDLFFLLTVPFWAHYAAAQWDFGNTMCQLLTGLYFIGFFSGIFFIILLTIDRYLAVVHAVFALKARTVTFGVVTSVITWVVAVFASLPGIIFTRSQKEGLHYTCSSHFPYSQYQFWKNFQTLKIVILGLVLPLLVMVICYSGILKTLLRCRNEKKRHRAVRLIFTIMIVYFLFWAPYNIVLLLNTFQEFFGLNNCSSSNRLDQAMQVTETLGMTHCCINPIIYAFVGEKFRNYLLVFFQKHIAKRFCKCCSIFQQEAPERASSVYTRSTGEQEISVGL
Method: Binding competition between increasing concentrations of compounds and FITC-conjugated mouse anti-human CD4 clone RPA-4 (Biolegend, Amsterdam, Netherlands), PE-conjugated mouse anti-Human CXCR4 clone 12G5, and PE-conjugated mouse anti-human CCR5 clone 2D7 (BD Pharma, Aalst, Belgium) to U373-CD4-CXCR4 and U373-CD4-CCR5 cells was first tested by flow cytometry (FACSCanto). […] After 1 h of incubation at 4 °C, cells were washed with FACS buffer (1% bovine serum albumin, 0.1% N3Na in PBS, Sigma), and Mean Fluorescence Intensity (MFI) was measured. […] Internalization was stopped after 30 min by addition of NaN3 (0.1%) on ice. Cells were stained with anti-human CXCR4 clone 4G10 (BD, Belgium) or anti-human CCR5 (CD195) clone T21/8, (eBioscience, Asse, Belgium), Near-IR fluorescent reactive dye during 1 h at 4 °C, washed with FACS buffer, and a secondary PE-conjugated goat anti-mouse antibody (Jackson ImmunoResearch, West Grove, PA, USA).

HIV-1 IIIB [9] = conditions: read-out: IC50 IIIB; PBMCs, 7 days, P24 ELISA
HIV-1 ADA-M [10] = conditions: read-out: IC50 ADA-M; PBMCs, 7 days, P24 ELISA
[11] = test system: non-B HIV-1 primary clinical isolate #1; conditions: non-B primary clinical isolate #1, 2 h
[12] = test system: non-B HIV-1 primary clinical isolate #2; conditions: non-B primary clinical isolate #2, 2 h

Question: Which IC50 (HIV-1 IIIB [1]) does the source give for Cc1cn([C@H]2C[C@H](N=[N+]=[N-])[C@@H](CO)O2)c(=O)[nH]c1=O [AZT, azidothymidine] here?
Answer: Its IC50 is 7.07 nM.

Question: What about the IC50 (HIV-1 ADA-M [2]) of the same molecule?
Answer: Its IC50 is 7.31 nM.

Question: And the IC50 [3]?
Answer: Its IC50 is 6.7 nM.

Question: What about the IC50 [4] of the same molecule?
Answer: The IC50 was over 1000 nM.

Question: With COc1cc(/C=C/c2ccc(O)cc2)cc(OC)c1 [Compound 1] as the molecule, how does the Anti-HIV activity (HIV-1) read?
Answer: Its Anti-HIV activity is “inactive”.

Question: For CC(=O)Oc1ccc(/C=C/c2cc(OC(C)=O)cc(OC(C)=O)c2)cc1 [Compound 2], which Anti-HIV activity (HIV-1) is on record?
Answer: The Anti-HIV activity was “inactive”.

Question: For CC(C)=CCc1c(O)cc(O)c(CC=C(C)C)c1/C=C/c1ccccc1 [Compound 12], which Anti-HIV activity (HIV-1) is on record?
Answer: Its Anti-HIV activity is “inactive”.

Question: What does the source list for O=c1cc(-c2ccc(O)cc2O)oc2cc(O)cc(O)c12 [Compound 15, norartocarpetin]?
Answer: IC50 (HIV-1): 39000 ± 5000 nM; CC50 [5]: > 500000 nM

Question: For COC(=O)/C=C/c1ccc(O)c(OC)c1 [Compound 17, methyl ferulate], which IC50 (HIV-1) is on record?
Answer: The IC50 was 600000 ± 22000 nM.

Question: Which IC50 (HIV-1 IIIB [1]) does the source give for O=C1Nc2ccc(Cl)cc2[C@@](C#CC2CC2)(C(F)(F)F)O1 [EFV, efavirenz] here?
Answer: The IC50 was 0.1 nM.

Question: What about the IC50 (HIV-1 ADA-M [2]) of the same molecule?
Answer: Its IC50 is 0.17 nM.

Question: And the IC50 [3]?
Answer: Its IC50 is over 10 nM.

Question: What about the IC50 [4] of the same molecule?
Answer: Its IC50 is over 10 nM.

Question: With C[C@@]12OC(=O)C[C@@H]1[C@H]1Oc3c(c(O)cc(O)c3[C@@H]3c4ccc(O)cc4O[C@H](c4ccc(O)cc4)[C@H]3O)C[C@H]1O2 [cassiabrevone] as the molecule, how does the “Inhibition of viral fusion” value (HIV-1 fusion) read?
Answer: Its value is “inhibited viral fusion similarly to CE”.

Question: What about the “Inhibition of gp120/CD4 binding” value [6] of the same molecule?
Answer: The value was “inhibited significantly gp120/CD4 binding activity in a dose-dependent manner”.

Question: And the IC50 [7]?
Answer: The IC50 was 31000 nM.

Question: For Oc1ccc([C@H]2Oc3cc(O)ccc3[C@@H](c3c(O)cc(O)c4c3O[C@H](c3ccc(O)cc3)[C@H](O)C4)[C@@H]2O)cc1 [guibourtinidol-(4α→8)-epiafzelechin], which “Inhibition of viral fusion” value (HIV-1 fusion) is on record?
Answer: The value was “inhibited viral fusion similarly to CE”.

Question: And the “Inhibition of gp120/CD4 binding” value [6]?
Answer: The value was “not guibourtinidol-(4α→8)-epiafzelechin”.

Question: And the IC50 [7]?
Answer: Its IC50 is 42500 nM.

Question: Which IC50 [7] does the source give for CC1(C)CC[C@]2(C(=O)O)CC[C@]3(C)C(=CC[C@@H]4[C@@]5(C)CC[C@H](O)C(C)(C)[C@@H]5CC[C@]43C)[C@@H]2C1 [oleanolic acid] here?
Answer: Its IC50 is 34900 ± 9090 nM.

Question: For CCCCCCCCCCCCCCCC(=O)O [palmitic acid], which IC50 [7] is on record?
Answer: Its IC50 is 87500 ± 16100 nM.

Question: Which “Inhibitory effect when added after infection” value [8] does the source give for Cc1nnc(C(=O)NC(C)(C)c2nc(C(=O)NCc3ccc(F)cc3)c(O)c(=O)n2C)o1 [raltegravir, reference compound] here?
Answer: The value was “inhibited HIV-1 infection”.

Question: Which IC50 [7] does the source give for O=C1c2c(O)cc(O)cc2OC(c2ccc(O)c(O)c2)C1O (centres unmarked) [taxifolin] here?
Answer: Its IC50 is 240000 ± 3000 nM.

Question: For “CCL5: chemokine C-C motif chemokine ligand 5, positive control for binding CCR5”, which “Inhibition of CCR5 binding” value (CCR5) is on record?
Answer: Its value is “inhibited”.

Question: Which IC50 (HIV-1 IIIB [9]) does the source give for enfuvirtide here?
Answer: Its IC50 is 0.64 nM.

Question: And the IC50 (HIV-1 ADA-M [10])?
Answer: The IC50 was 0.67 nM.

Question: And the IC50 [11]?
Answer: The IC50 was 8.25 nM.

Question: And the IC50 [12]?
Answer: The IC50 was 1.93 nM.
